Toxic doses and inconclusive results are not listed. Rule for the calls: active = survival T/C of 150% or more; inactive = T/C below 125% in these data.
Tested on: CD2F1 mice, L1210 leukemia ip, survival T/C
Experiment: NCI In Vivo Anticancer Drug Screen. Data for tumor model L1210 Leukemia (intraperitoneal) in CD2F1 (CDF1) mice
Settings: higher = longer survival
Summary of the method: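 Activity against a transplanted murine tumor was judged by comparing the compound group with a vehicle group. The outcome in the treated animals was divided by that in the controls.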

Measured: T/C

CC(=O)OCC1OC(n2ncnc2CI)C(OC(C)=O)C(OC(C)=O)C1OC(C)=O (centres undefined)
inactive: endpoint: median survival time, dose: 12.5 mg/kg/injection, schedule: Q01DX005 (ip), vehicle: distilled water + Tween-80 105 % of control | endpoint: median survival time, dose: 25.0 mg/kg/injection, schedule: Q01DX005 (ip), vehicle: distilled water + Tween-80 105 % of control | endpoint: median survival time, dose: 50.0 mg/kg/injection, schedule: Q01DX005 (ip), vehicle: distilled water + Tween-80 96 % of control

CCN(CC)c1cc(Cl)ccc1Cl
inactive: endpoint: mean survival time, dose: 25.0 mg/kg/injection, schedule: Q01DX009 (ip), vehicle: saline 102 % of control | endpoint: mean survival time, dose: 25.0 mg/kg/injection, schedule: Q04DX002 (ip), vehicle: saline with Tween-80 91 % of control | endpoint: mean survival time, dose: 50.0 mg/kg/injection, schedule: Q01DX009 (ip), vehicle: saline 101 % of control | endpoint: mean survival time, dose: 50.0 mg/kg/injection, schedule: Q04DX002 (ip), vehicle: saline with Tween-80 95 % of control | endpoint: mean survival time, dose: 100.0 mg/kg/injection, schedule: Q01DX001 (ip), vehicle: saline with Tween-80 98 % of control | endpoint: mean survival time, dose: 100.0 mg/kg/injection, schedule: Q01DX009 (ip), vehicle: saline 101 % of control

CC(C)[C@](O)(C(=O)OCC1=CC[N+]2([O-])CC[C@@H](O)[C@@H]12)[C@H](C)O (some centres undefined)
inactive: endpoint: mean survival time, dose: 50.0 mg/kg/injection, schedule: Q01DX009 (ip), vehicle: water 116 % of control | endpoint: mean survival time, dose: 750.0 mg/kg/injection, schedule: Q01DX001 (ip), vehicle: saline 96 % of control | endpoint: mean survival time, dose: 1000.0 mg/kg/injection, schedule: Q01DX001 (ip), vehicle: saline 101 % of control | endpoint: mean survival time, dose: 1250.0 mg/kg/injection, schedule: Q01DX001 (ip), vehicle: saline 97 % of control | endpoint: mean survival time, dose: 1500.0 mg/kg/injection, schedule: Q01DX001 (ip), vehicle: saline 105 % of control | endpoint: mean survival time, dose: 2000.0 mg/kg/injection, schedule: Q01DX001 (ip), vehicle: saline 117 % of control | endpoint: mean survival time, dose: 3000.0 mg/kg/injection, schedule: Q01DX001 (ip), vehicle: saline 115 % of control

Clc1ccc(OCc2sc3ccc(Cl)cc3c2CN2CCOCC2)cc1
inactive: endpoint: mean survival time, dose: 100.0 mg/kg/injection, schedule: Q01DX009 (ip), vehicle: saline with Tween-80 94 % of control | endpoint: mean survival time, dose: 200.0 mg/kg/injection, schedule: Q01DX009 (ip), vehicle: saline with Tween-80 101 % of control | endpoint: mean survival time, dose: 400.0 mg/kg/injection, schedule: Q01DX009 (ip), vehicle: saline with Tween-80 92 % of control
